Reference: patent publication US20250304537A1 (Repare Therapeutics Inc., priority 2022, published 2025)
Like-named read-outs stand apart in the source and are kept apart here.

What was measured:
[1] = target: recombinant human Myt1 (full length PKMYT1) (Homo sapiens (Human), UniProt Q99640); test: Recombinant human Myt1 kinase assay (ADP-Glo); assay type: biochemical; details: 10 μM ATP
Method in brief: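 ADP-Glo luminescence measured ATP hydrolysis by recombinant full-length PKMYT1 (18 nM) after 60 min at 30 °C with 10 μM ATP. Compounds in 0.5% DMSO were added to the enzyme 15 min before ATP, at 22 °C, in HEPES/MgCl2/MnCl2 buffer. IC50 and percent maximal inhibition were derived.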

[2] = test system: PKMYT1 (CDK1 pThr14) in FUOV1 cells; test: PKMYT1 cell-based activity assay, CDK1 pThr14 AlphaLISA in FUOV1 cells; details: read-out: FUOV-1 CDK1 pThr14 IC50
Method in brief: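 IC50 was derived from AlphaLISA signal (excitation 680 nm, emission 615 nm) for phospho-Thr14 CDK1 in lysates. The detection antibodies were rabbit anti-pThr14 and mouse anti-total CDK1, each at 5 nM. FUOV1 ovarian cells were exposed to compound for 2 hours before lysis.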

Chain of recombinant human Myt1 (full length PKMYT1) (Q99640 whole entry): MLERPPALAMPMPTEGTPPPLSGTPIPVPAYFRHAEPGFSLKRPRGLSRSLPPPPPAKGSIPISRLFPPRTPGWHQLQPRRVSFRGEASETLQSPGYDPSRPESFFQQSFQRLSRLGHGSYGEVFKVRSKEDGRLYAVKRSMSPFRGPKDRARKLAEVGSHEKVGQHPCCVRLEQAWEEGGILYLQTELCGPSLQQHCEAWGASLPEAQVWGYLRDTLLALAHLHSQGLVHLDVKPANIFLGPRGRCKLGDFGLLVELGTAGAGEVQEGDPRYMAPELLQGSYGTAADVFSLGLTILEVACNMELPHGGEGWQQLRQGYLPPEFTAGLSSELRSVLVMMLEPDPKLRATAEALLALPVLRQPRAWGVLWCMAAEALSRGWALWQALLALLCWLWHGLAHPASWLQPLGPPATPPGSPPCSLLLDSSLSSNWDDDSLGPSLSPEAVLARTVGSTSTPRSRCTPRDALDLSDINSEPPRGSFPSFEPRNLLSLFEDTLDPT

IC50 [1] [nM]	IC50 ([2]; 2 h, 2 h incubation) [nM]	IC50 ([2]; 2 h, 2 hours with compound) [nM]	IC50 ([2]; 2 h, 2 h compound incubation) [nM]	IC50 ([2]; 2 h incubation) [nM]	SMILES
7	423	–	–	–	Cc1ccc2[nH]ncc2c1-c1cc(-c2cccc(OCc3cccnc3)n2)nc(C(N)=O)c1N [Compound 179]
8	–	305	–	–	Cc1ccc2[nH]ncc2c1-c1nc(-c2cccnc2N[C@H]2CCOCC2(C)C)nc(C(N)=O)c1N [Compound 830]
9	144	–	–	–	COCC(COC)Oc1nccc(-c2cc(-c3c(C)ccc4[nH]ncc34)c(N)c(C(N)=O)n2)n1 [Compound 207]
12	267	–	–	–	COCCCOc1nccc(-c2cc(-c3c(C)ccc4[nH]ncc34)c(N)c(C(N)=O)n2)n1 [Compound 197]
11	193	–	–	–	Cc1ccc2[nH]ncc2c1-c1cc(-c2cccc(OCc3ccncn3)n2)nc(C(N)=O)c1N [Compound 244]
7	122	–	–	–	Cc1ccc2[nH]ncc2c1-c1cc(-c2ccnc(OC3COC3)n2)nc(C(N)=O)c1N [Compound 161]
466	2420	–	–	–	Cc1ccc2[nH]ncc2c1-c1cc(-c2ccnc(N[C@H](CO)c3ccccc3)n2)nc(C(N)=O)c1N (atropisomer, axis not shown) [Compound 371]
4	367	–	–	–	Cc1ccc2[nH]ncc2c1-c1cc(-c2cccc(O[C@H]3CCOC3)n2)nc(C(N)=O)c1N (atropisomer, axis not shown) [Compound 226]
3	–	–	8	–	Cc1ccc2[nH]ncc2c1-c1nc(-c2ccccc2NC(=O)C(C)(C)F)nc(C(N)=O)c1N [Compound 434]
6	–	–	77	–	Cc1ccc2[nH]ncc2c1-c1nc(-c2cc(F)c(F)cc2NC2CCOCC2)nc(C(N)=O)c1N [Compound 466, 5-amino-2-(4,5-difluoro-2-((tetrahydro-2H-pyran-4-yl)amino)phenyl)-6-(5-methyl-1H-indazol-4-yl)pyrimidine-4-carboxamide]
5	–	–	8	–	Cc1ccc(-c2nc(C(N)=O)c(N)c(-c3c(C)ccc4[nH]ncc34)n2)c(Nc2nccnc2C)n1 [Compound 658]
9	261	–	–	–	Cc1ccc2[nH]ncc2c1-c1cc(-c2cccc(OCC3COC3)n2)nc(C(N)=O)c1N [Compound 268]
2	–	–	36	–	Cc1ccc2[nH]ncc2c1-c1nc(-c2ccccc2NCC(F)F)nc(C(N)=O)c1N [Compound 400, 5-amino-2-(2-((2,2-difluoroethyl)amino)phenyl)-6-(5-methyl-1H-indazol-4-yl)pyrimidine-4-carboxamide]
2520	–	> 10000	–	–	CNS(=O)(=O)c1ccccc1-c1nc(C(N)=O)c(N)c(-c2c(C)ccc3[nH]ncc23)n1 [Compound 795]
2	–	216	–	–	Cc1ccc2[nH]ncc2c1-c1nc(-c2cccnc2N[C@@H](c2cccnc2)C(F)F)nc(C(N)=O)c1N [Compound 937]
400	1180	–	–	–	CC[C@@H](COc1nccc(-c2cc(-c3c(C)ccc4[nH]ncc34)c(N)c(C(N)=O)n2)n1)OC (atropisomer, axis not shown) [Compound 334]
15	1600	–	–	–	Cc1ccc2[nH]ncc2c1-c1cc(-c2cccc(Oc3cccc(N4CCCC4)c3)n2)nc(C(N)=O)c1N [Compound 182]
9	349	–	–	–	Cc1ccc2[nH]ncc2c1-c1cc(-c2ccnc(OCCn3ccnc3)n2)nc(C(N)=O)c1N [Compound 315]
7	270	–	–	–	CCC(COC)Oc1nccc(-c2cc(-c3c(C)ccc4[nH]ncc34)c(N)c(C(N)=O)n2)n1 (stereo not drawn) [Compound 221]
4	–	–	414	–	Cc1ccc2[nH]ncc2c1-c1nc(-c2cccnc2Nc2cccc(C(N)=O)c2)nc(C(N)=O)c1N [Compound 609]
7	–	–	23	–	Cc1ccc2[nH]ncc2c1-c1nc(-c2ccccc2Nc2ncccn2)nc(C(N)=O)c1N [Compound 449, 5-amino-6-(5-methyl-1H-indazol-4-yl)-2-(2-(pyrimidin-2-ylamino)phenyl)pyrimidine-4-carboxamide]

IC50 [1] [nM]	IC50 ([2]; 2 h, 2 h incubation) [nM]	IC50 ([2]; 2 h, 2 hours with compound) [nM]	IC50 ([2]; 2 h, 2 h compound incubation) [nM]	IC50 ([2]; 2 h incubation) [nM]	SMILES
4	–	–	29	–	Cc1ccc2[nH]ncc2c1-c1nc(-c2cccnc2NC[C@@H]2CCOC2)nc(C(N)=O)c1N [Compound 602]
8	652	–	–	–	Cc1ccc2[nH]ncc2c1-c1nc(-c2cccc(OCC#N)c2)nc(C(N)=O)c1N [Compound 288]
16	–	–	398	–	Cc1ccc2[nH]ncc2c1-c1nc(-c2ccccc2NC(=O)OC(C)(C)C)nc(C(N)=O)c1N [Compound 474]
40	252	–	–	–	Cc1ccc2[nH]ncc2c1-c1cc(-c2csc(OC3COC3)n2)nc(C(N)=O)c1N [Compound 224]
14	–	–	138	–	Cc1ccc2[nH]ncc2c1-c1nc(-c2cc(F)c(F)cc2NC2CC(F)(F)C2)nc(C(N)=O)c1N [Compound 475]
4	–	–	40	–	Cc1ccc2[nH]ncc2c1-c1nc(-c2cc(F)ccc2NCC(F)F)nc(C(N)=O)c1N [Compound 421]
27	1230	–	–	–	Cc1ccc2[nH]ncc2c1-c1nc(-c2ccncc2)nc(C(N)=O)c1N [Compound 100]
5	–	–	–	40	Cc1ccc(O)c(C)c1-c1cc(-c2ccnnc2)nc(C(N)=O)c1N [Compound 63]
6	–	–	21	–	COc1ccc(-c2nc(C(N)=O)c(N)c(-c3c(C)ccc4[nH]ncc34)n2)c(NC(=O)C2(C)CC2)c1 [Compound 455]
5	112	–	–	–	Cc1ccc(O)c(C)c1-c1cc(-c2nccs2)cc(C(N)=O)c1N [Compound 81]
15	–	589	–	–	Cc1ccc2[nH]ncc2c1-c1nc(-c2cn(CC3CC3)nc2NC2CCOCC2)nc(C(N)=O)c1N [Compound 892]
53	–	–	641	–	CCOc1ccccc1-c1nc(C(N)=O)c(N)c(-c2c(C)ccc3[nH]ncc23)n1 [Compound 794]
49	> 10000	–	–	–	NC(=O)c1nc(-c2ccccc2)nc(-c2ccc(F)c3[nH]ncc23)c1N [Compound 121]
21	132	–	–	–	Cc1ccc2[nH]ncc2c1-c1cc(-c2cccc(OC3(c4ncccn4)COC3)n2)nc(C(N)=O)c1N [Compound 256]
8	–	–	121	–	Cc1ccc2[nH]ncc2c1-c1nc(-c2ccccc2Nc2ccc(F)cn2)nc(C(N)=O)c1N [Compound 450]
13	–	1610	–	–	Cc1ccc2[nH]ncc2c1-c1nc(-c2cccnc2NCCn2ccnc2C)nc(C(N)=O)c1N [Compound 884]
11	436	–	–	–	Cc1ccc2[nH]ncc2c1-c1cc(-c2ccnc(NC3CC3)n2)nc(C(N)=O)c1N [Compound 163]
7	184	–	–	–	Cc1ccc2[nH]ncc2c1-c1cc(-c2ccnc(OCC3CCCO3)n2)nc(C(N)=O)c1N (stereo not drawn) [Compound 211]
5	22	–	–	–	CO[C@H](COc1nccc(-c2cc(-c3c(C)ccc4[nH]ncc34)c(N)c(C(N)=O)n2)n1)c1ccccc1 (atropisomer, axis not shown) [Compound 309]
6	260	–	–	–	Cc1ccc(O)c(C)c1-c1cc(-c2ccnc(N)c2)cc(C(N)=O)c1N [Compound 64]
5	158	–	–	–	Cc1ccc2[nH]ncc2c1-c1cc(-c2cccc(OCc3cscn3)n2)nc(C(N)=O)c1N [Compound 278]
